Series [1] has as its system S. lividans C37. The series is described as follows: Percent conversion of herbicides by cultures (Example 16). In kind it is in vitro ADME, Streptomyces lividans. Conditions: 3.0 mg herbicide in 25 ml broth; 24 hours. As for the experimental part: (§1) Separate cultures (50 ml) inoculated with S. lividans C37, S. lividans transformed with pCAO200SU1-FeS-B#9, S. griseolus ATCC11796, S. griseolus PH2003 transformed with pIJ425, or S. ariseolus PH2003 transformed with pCS325 were cultured in sporulation broth for 18 hours at 30° C. with shaking. Each culture was then resuspended in 25 ml fresh sporulation broth and 3.0 mg herbicide added. In the case of cultures of S. griseolus ATCC11796, a second culture containing herbicide and 3.0 mg 10001 was also prepared. Each culture was reincubated for 24 hours, then an aliquot of the medium was withdrawn and analyzed by HPLC. The percent conversion of herbicide was determined.

Series [2] deals with S. lividans pCAO200SU1-FeS-B#9. Described as above. In kind it is in vitro ADME, Streptomyces lividans. Conditions: 3.0 mg herbicide in 25 ml broth; 24 hours. As to the method:
as §1

Series [3] has as its system S. griseolus PH2003 pIJ425. Described as above. It counts as in vitro ADME, Streptomyces griseolus. The conditions noted are these: 3.0 mg herbicide in 25 ml broth; 24 hours.
For series [4], the system named is S. griseolus ATCC 11796. Briefly: Western blot for cytochrome P450SU1 after induction with 10001 (Example 3). It counts as cell-based, Streptomyces griseolus. The conditions noted are these: 36 mg of 10001 added six hours before harvesting; not found without 10001. As to the method: Western blot analysis of proteins is performed by separating the proteins by SDS polyacrylamide gel electrophoresis (Laemmli, Nature 227: 680, 1970, herein incorporated by reference) and then transferring the proteins to nitrocellulose and detecting the protein of interest with antibody specific for the protein as described by Towbin et al., Proc. Natl. Acad. Sci. U.S.A. 76: 4350-4354 (1979) and Bio-Rad bulletin 885 85-0335. (Bio-Rad Laboratories, Richmond, CA 94804), each herein incorporated by reference. Antiserum to cytochrome P450SU1 was that described by O'Keefe et al., Recent Advances in Phytochemistry 21: 151-173 (1987), herein incorporated by reference.
S. lividans containing pCAO200, containing pCAO200SU1-FeS-B#9 and S. lividans containing […] were grown separately in 400 ml of YEME broth with-shaking at 30° C. for approximately 36 hours. S. griseolus ATCC 11796 was grown in 400 ml of sporulation broth for approximately 30 hours. Six hours before harvesting the cells from the cultures, 200 ml of YEME was added to the S. lividans cells. Six hours before harvesting, the S. griseolus culture was split into two 200 ml aliquots and 100 ml of fresh sporulation broth was added to each. […] Cytochrome P450SU1 was detected in the cultures of S. lividans transformed with either pCAO200SU1-FeS-B#9 or pCAO200SU1#12 and in the S. griseolus ATCC 11796 culture induced with 10001.
On the technique in general: Immunoblotting shows a protein as a band on a membrane.

In series [5] the test system is S. lividans pCAO200SU2-FeS-A#11. Briefly: Sulfonylurea metabolism by washed cell suspension (Examples 11-12). Conditions: for concentration in supernatant: substrate 10010. In kind it is in vitro ADME, Streptomyces lividans.
Series [6] deals with transgenic Nicotiana tabacum cv. Xanthi plants. Briefly: In vitro pollen germination after spraying 10015 on tobacco with anther-specific P450SU1 (Example 28). In kind it is in vivo. As for the experimental part:
Application of compound 10015 was as follows. The tapetal cells of the anther surround the developing pollen and are instrumental in supporting the development of mature pollen. Thus production of a toxin in the tapetal cells was expected to disrupt the development of normal mature pollen. The nontoxic compound 10015 was sprayed onto flowering transgenic plants that had anther-specific expression of P450SU1 mRNA. […] The 10015 was first dissolved in up to 0.8 ml of 0.01 N ammonium hydroxide and then diluted into AGWT (90.2% Acetone:4.8% Glycerol:4.8% Water:0.24% Tween 20 by volume). Little effect was seen when rates of less than 32 g/ha were applied. At 32 g/ha and above, effects were seen on the ability of pollen to germinate in vitro. Newly opened buds were collected at time intervals between four and 23 days after spraying. The anthers were removed and pollen was brushed into Brewbaker and Kwak medium (15% sucrose, 200 ppm calcium nitrate, 100 ppm boric acid). Growth of tubes from the pollen, indicating germination, was assessed after four hours of incubation by microscopic observation.

Structures are written as SMILES.

Take `CCOC(=O)c1ccccc1S(=O)(=O)NC(=O)Nc1nc(Cl)cc(OC)n1` [compound 10001, N-[(4-chloro-6-methoxy-pyrimidin-2-yl)aminocarbonyl]-2-ethoxycarbonylbenzenesulfonamide]: the “Percent Conversion” value stood at 0% in series [1], 56% in series [2] and 100% in series [3]. In addition, in series [4], the “Cytochrome P450SU1 in culture (Western blot)” value was “detected”.
As for `COC(=O)c1ccccc1S(=O)(=O)NC(=O)Nc1nc(C)cc(C)n1` [compound 10010, N-[(4,6-dimethylpyrimidin-2-yl)aminocarbonyl]-2-methoxycarbonylbenzenesulfonamide], the concentration in supernatant in series [5] (2 h) was 90 µM; in series [5] (4 h), 84 µM; in series [5] (6 h), 72 µM. Besides, in series [5] (summary of Example 12), the “metabolism compared with uninduced S. griseolus PH2001” value is on record as “more readily than uninduced S. griseolus PH2001”.
Take `COc1cc(OC)nc(NC(=O)NS(=O)(=O)c2cccc3c2S(=O)(=O)N(C(C)C)C3)n1` [compound 10015]: the “pollen germination in vitro” value in series [6] (A-T-SU1 plants 41A and 56 A, 32 g/ha, 7 to 11 days after application) is 0%; in series [6] (A-T-SU1 plants 41A and 56 A, 32 g/ha, through 18 days on one plant, 13 days on the other) it was “less than 0.1%”; in series [6] (plant 28A, 100 g/ha, 21 days), “less than 0.1%”; in series [6] (plant 38A, 100 g/ha, 14 days, varying between buds), 1-25%.

Source of the values: US5349127A, “Expression of herbicide metabolizing cytochromes P450” (priority 1992, dated 1994).
